Here are results for 23 compounds from patent US20090036448A1, “PYRIMIDINE DERIVATIVES AND METHODS OF TREATMENT RELATED TO THE USE THEREOF” (TAISHO PHARMECUTICAL CO., LTD., priority 2004, published 2009).

Where a name gives a salt, the structure may show the parent alone.

One experiment concerns the target MCH receptor (Homo sapiens, UniProt Q99705). Description: FLIPR/FDSS6000 functional assay: intracellular Ca2+ changes evoked by MCH. The format is cell-based. As to conditions: antagonist activity, 50 nM of MCH, [Ca2+]i by FLIPR or FDSS; read-out: IC50. The text has this:
Subsequently, a functional based assay was used to confirm the lead hits, referred to as FLIPR™ (the Fluorometric Imaging Plate Reader) and FDSS6000™ (Functional Drug Screening System). This assay utilized a non-endogenous, constitutively active version of the MCH receptor.
The FLIPR and FDSS assays are able to detect intracellular Ca^2+ concentration in cells, which can be utilized to assess receptor activation and determine whether a candidate compound is an, for example, antagonist, inverse agonist or agonist to a Gq-coupled receptor. The concentration of free Ca^2+ in the cytosol of any cell is extremely low, whereas its concentration in the extracellular fluid and endoplasmic reticulum (ER) is very high. Thus, there is a large gradient tending to drive Ca^2+ into the cytosol across both the plasma membrane and ER. The FLIPR™ and FDSS6000™ systems (Molecular Devices Corporation, HAMAMATSU Photonics K.K.) are designed to perform functional cell-based assays, such as the measurement of intracellular calcium for high-throughput screening. The measurement of fluorescent is associated with calcium release upon activation of the Gq-coupled receptors.
Fluorometric Imaging Plate Reader system was used to allow for rapid, kinetic measurements of intracellular fluorescence in 96 well microplates (or 384 well microplates). Simultaneous measurements of fluorescence in all wells can be made by FLIPR or FDSS6000™ every second with high sensitivity and precision. These systems are ideal for measuring cell-based functional assays such as monitoring the intracellular calcium fluxes that occur within seconds after activation of the Gq coupled receptor.
Briefly, the cells are seeded into 96 well at 5.5×10^4 cells/well with complete culture media (Dulbecco's Modified Eagle Medium with 10% fetal bovine serum, 2 mM L-glutamine, 1 mM sodium pyruvate and 0.5 mg/mL G418, pH 7.4) for the assay next day. On the day of assay, the media is removed and the cells are incubated with 100 μl of loading buffer (4 μM Fluo-4-AM in complete culture media containing 2.5 mM Probenicid, 0.5 mg/ml and 0.2% bovine serum albumin) in 5% CO2 incubator at 37° C. for 1 hr. The loading buffer is removed, and the cells are washed with wash buffer (Hank's Balanced Salt Solution containing 2.5 mM Probenicid, 20 mM HEPES, 0.5 mg/mL and 0.2% bovine serum albumin, pH 7.4). One hundred fifty μl of wash buffer containing various concentrations of test compound is added to the cells, and the cells are incubated in 5% CO2 incubator at 37° C. for 30 min. Fifty μl of wash buffer containing various concentration of MCH are added to each well, and transient changes in [Ca^2+]i evoked by MCH are monitored using the FLIPR or FDSS in 96 well plates at Ex. 488 nm and Em. 530 nm for 290 second. When antagonist activity of compound is tested, 50 nM of MCH is used.
Use of FLIPR™ and FDSS6000™ can be accomplished by following manufacturer's instruction (Molecular Device Corporation and HAMAMATSU Photonics K.K.).
In the case of `Cc1nc(N[C@H]2CC[C@@H](NC(=O)c3cccc(Cl)c3)CC2)cc(N(C)C)n1` [Example 24, 3-Chloro-N-(cis-4-{[6-(dimethylamino)-2-methylpyrimidin-4-yl]amino}cyclohexyl)-benzamide hydrochloride], the IC50 amounted to 26 nM.

Staying with this experiment, now noted: class by percent of control at 10^−7 M or by IC50; antagonist activity, 50 nM of MCH; read-out: class.
`Cc1nc(N[C@H]2CC[C@@H](NC(=O)c3cc(F)cc(F)c3)CC2)cc(N(C)C)n1` [Example 13, N-(cis-4-{[6-(Dimethylamino)-2-methylpyrimidin-4-yl]amino}cyclohexyl)-3,5-difluorobenzamide hydrochloride]: the IC50 lay in the range of 50 to 200 nM.

Turning to `Cc1nc(N[C@H]2CC[C@@H](NC(=O)c3ccc(Cl)c(F)c3)CC2)cc(N(C)C)n1` [Example 9, 4-Chloro-N-(cis-4-{[6-(dimethylamino)-2-methylpyrimidin-4-yl]amino}cyclohexyl)-3-fluorobenzamide hydrochloride], the IC50 fell in the range of 50 to 200 nM.

As to `Cc1nc(N[C@H]2CC[C@@H](NC(=O)c3ccc(F)c(Cl)c3)CC2)cc(N(C)C)n1` [Example 6, 3-Chloro-N-(cis-4-{[6-(dimethylamino)-2-methylpyrimidin-4-yl]amino}cyclohexyl)-4-fluorobenzamide hydrochloride], the IC50 was under 50 nM.

On to `Cc1nc(N[C@H]2CC[C@@H](NC(=O)c3ccc(F)c(Cl)c3)CC2)c(C)c(N(C)C)n1` [Example 180, 3-Chloro-N-(cis-4-{[6-(dimethylamino)-2,5-dimethylpyrimidin-4-yl]amino}cyclohexyl)-4-fluorobenzamide hydrochloride], for which the IC50 is over 200 nM.

Take `Cn1ccc2c(N[C@H]3CC[C@@H](NC(=O)c4ccc(F)c(Cl)c4)CC3)ncnc21` [Example 187, 3-Chloro-4-fluoro-N-{cis-4-[(7-methyl-7H-pyrrolo[2,3-d]pyrimidin-4-yl)amino]cyclohexyl}-benzamide hydrochloride]: the IC50 lay within 50 to 200 nM.

Turning to `Cc1nc(N[C@H]2CC[C@@H](NC(=O)c3ccc(OC(F)(F)F)cc3)CC2)cc(N(C)C)n1` [Example 20, N-(cis-4-{[6-(Dimethylamino)-2-methylpyrimidin-4-yl]amino}cyclohexyl)-4-(trifluoromethoxy)benzamide hydrochloride], the IC50 is over 200 nM.

Regarding “N^4-(cis-4-{[Bromo-2-(trifluoromethoxy)benzyl]amino}cyclohexyl)-N^2,N^2-dimethylpyrimidine-2,4-diamine dihydrochloride [Example 42]”, the IC50 is over 200 nM.

Turning to `CCc1nc(N[C@H]2CC[C@@H](NC(=O)c3ccc(F)c(F)c3)CC2)cc(N(C)C)n1` [Example 32, N-(cis-4-{[6-(Dimethylamino)-2-ethylpyrimidin-4-yl]amino}cyclohexyl)-3,4-difluorobenzamide hydrochloride], the IC50 was under 50 nM.

Take `CCc1nc(N[C@H]2CC[C@@H](NC(=O)c3cc(F)c(F)c(F)c3)CC2)cc(N(C)C)n1` [Example 177, N-(cis-4-{[6-(Dimethylamino)-2-ethylpyrimidin-4-yl]amino}cyclohexyl)-3,4,5-trifluorobenzamide hydrochloride]: the IC50 is under 50 nM.

Turning to `Cc1cc(N[C@H]2CC[C@@H](NC(=O)c3ccc(F)c(Cl)c3)CC2)nc(N(C)C)n1` [Example 45, 3-Chloro-N-(cis-4-{([2-(dimethylamino)-6-methylpyrimidin-4-yl]amino}cyclohexyl)-4-fluorobenzamide hydrochloride], the IC50 was in the range of 50 to 200 nM.

Take `Cc1nc(Cl)cc(N[C@H]2CC[C@@H](NC(=O)c3cc(F)c(F)c(F)c3)CC2)n1` [Example 172, N-{cis-4-[(6-Chloro-2-methylpyrimidin-4-yl)amino]cyclohexyl}-3,4,5-trifluorobenzamide]: the IC50 was over 200 nM.

As to `Cc1nc(N[C@H]2CC[C@@H](C(=O)Nc3cc(Cl)cc(Cl)c3)CC2)cc(N(C)C)n1` [Example 195, cis-N-(3,5-Dichlorophenyl)-4-{[6-(dimethylamino)-2-methylpyrimidin-4-yl]amino}-cyclohexanecarboxamide hydrochloride], the IC50 is over 200 nM.

Turning to `Cc1nc(N[C@H]2CC[C@@H](NC(=O)c3ccc(F)c(Cl)c3)CC2)cc(N2CCCCC2)n1` [Example 37, 3-Chloro-4-fluoro-N-{cis-4-[(2-methyl-6-piperidin-1-ylpyrimidin-4-yl)amino]cyclohexyl}-benzamide hydrochloride], the IC50 is over 200 nM.

Turning to `Cc1nc(N[C@H]2CC[C@@H](NC(=O)c3cncc(Br)c3)CC2)cc(N(C)C)n1` [Example 12, 5-Bromo-N-(cis-4-{[6-(dimethylamino)-2-methylpyrimidin-4-yl]amino}cyclohexyl)-nicotinamide dihydrochloride], the IC50 lay in the range of 50 to 200 nM.

Consider `Cc1nc(N[C@H]2CC[C@@H](NC(=O)c3ccc(F)c(Cl)c3)CC2)cc(N2CCCC2)n1` [Example 40, 3-Chloro-4-fluoro-N-{cis-4-[(2-methyl-6-pyrrolidin-1-ylpyrimidin-4-yl)amino]cyclohexyl}-benzamide hydrochloride], for which the IC50 was under 50 nM.

As for `Cc1nc(N[C@H]2CC[C@@H](NC(=O)c3cc(C(F)(F)F)cc(C(F)(F)F)c3)CC2)cc(N(C)C)n1` [Example 27, N-(cis-4-{([6-(Dimethylamino)-2-methylpyrimidin-4-yl]amino}cyclohexyl)-3,5-bis-(trifluoromethyl)benzamide hydrochloride], the IC50 lay in the range of 50 to 200 nM.

Turning to `Cc1nc(N[C@H]2CC[C@@H](NC(=O)c3ccc(OC(F)(F)F)c(Cl)c3)CC2)cc(N(C)C)n1` [Example 16, 3-Chloro-N-(cis-4-{[6-(dimethylamino)-2-methylpyrimidin-4-yl]amino}cyclohexyl)-4-(trifluoromethoxy)benzamide hydrochloride], the IC50 is 50 to 200 nM.

Regarding `Cc1nc(N[C@H]2CC[C@@H](NC(=O)c3cccc(C(F)(F)F)c3)CC2)cc(N(C)C)n1` [Example 17, N-(cis-4-{[6-(Dimethylamino)-2-methylpyrimidin-4-yl]amino}cyclohexyl)-3-(trifluoromethyl)-benzamide hydrochloride], the IC50 was under 50 nM.

`Cc1nc(N[C@H]2CC[C@@H](C(=O)Oc3ccc(F)c(F)c3)CC2)cc(N(C)C)n1` [Example 196, 3,4-Difluorophenyl cis-4-{[6-(dimethylamino)-2-methylpyrimidin-4-yl]amino}-cyclohexanecarboxylate hydrochloride]: the IC50 was over 200 nM.

`Cc1nc(N[C@H]2CC[C@@H](NC(=O)c3ccccc3F)CC2)cc(N(C)C)n1` [Example 22, N-(cis-4-{[6-(Dimethylamino)-2-methylpyrimidin-4-yl]amino}cyclohexyl)-2-fluorobenzamide hydrochloride]: the IC50 is over 200 nM.

On to `Cc1nc(N[C@H]2CC[C@@H](NC(=O)c3cccc(F)c3)CC2)cc(N(C)C)n1` [Example 23, N-(cis-4-{[6-(Dimethylamino)-2-methylpyrimidin-4-yl]amino}cyclohexyl)-3-fluorobenzamide hydrochloride], for which the IC50 is 50 to 200 nM.

As to `Cc1nc(N[C@H]2CC[C@@H](NC(=O)c3cc(F)cc(Cl)c3)CC2)cc(N(C)C)n1` [Example 10, 3-Chloro-N-(cis-4-{[6-(dimethylamino)-2-methylpyrimidin-4-yl]amino}cyclohexyl)-5-fluorobenzamide hydrochloride], the IC50 is under 50 nM.

Consider `Cc1nc(N[C@H]2CC[C@@H](NC(=O)c3cccc(Cl)c3)CC2)cc(N(C)C)n1` [Example 24, 3-Chloro-N-(cis-4-{[6-(dimethylamino)-2-methylpyrimidin-4-yl]amino}cyclohexyl)-benzamide hydrochloride], for which the IC50 is under 50 nM.
